Values quoted from earlier work, collected in patent US20160128954A1 (Raptor Pharmaceuticals Inc., priority 2014, published 2016).

What was measured:
HD patients = details: five patients over 2 weeks
[1] = in vivo
[2] = system: circulating white blood cells
[3] = system: mice with the gene mutation for Huntington's disease (HD); details: mouse, in vivo

SMILES | efficacy in HD (HD patients) | crossing of the blood-brain barrier [1] | time to decrease in leukocyte cystine ([2]; delivery into the small intestine (WO 2007/089670)) | depletion of intracellular cystine ([2]; taken regularly, measured in circulating white blood cells) | effect on tremors and life span [3]
NCCS [cysteamine, Cysteamine (HS—CH2—CH2—NH2)] | no efficacy | crosses the blood-brain barrier | within an hour | up to 90% | –
NCCSSCCN [cystamine, Cystamine] | – | does not, or corsses less efficiently than cysteamine | – | – | alleviate tremors and prolong life
